Assay results taken from patent publication US5831055A, “DNA encoding a novel kidney ATP-dependent potassium channels” (Pharmacia & Upjohn Company, priority 1996, dated 1998).

What was measured:
[1] = biological target: T1, KIRK 2 channel (Homo sapiens, UniProt P78508); assay: Two-microelectrode voltage-clamp of Xenopus oocytes injected with KIRK 2 cRNA; assay type: cell-based; settings: for inhibition of KIRK 2 current: Xenopus oocytes expressing KIRK 2, Ba^2+ applied at 0.03 μM to 10 mM (n=8), Cs^+ n=6, data not shown
T1 construct: primers that flank the open-reading frame of KIRK-2 were used to PCR amplify this region of the genomic clone; expressed in transfected cells; host or cells: Xenopus laevis oocytes injected with polyadenylated KIRK 2 cRNA (from pSPORT/KIRK-2)
T1 sequence (P78508 1-379): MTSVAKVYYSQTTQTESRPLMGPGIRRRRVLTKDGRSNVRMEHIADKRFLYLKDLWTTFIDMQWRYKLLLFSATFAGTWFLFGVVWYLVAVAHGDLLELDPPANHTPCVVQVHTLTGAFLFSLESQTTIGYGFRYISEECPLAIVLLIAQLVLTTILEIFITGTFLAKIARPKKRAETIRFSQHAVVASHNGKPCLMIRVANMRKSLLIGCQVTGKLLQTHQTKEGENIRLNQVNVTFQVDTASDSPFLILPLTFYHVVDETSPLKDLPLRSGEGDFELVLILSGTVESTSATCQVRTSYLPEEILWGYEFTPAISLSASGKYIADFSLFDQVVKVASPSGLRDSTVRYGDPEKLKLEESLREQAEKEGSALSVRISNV
Description: Oocytes were collected under tricaine (3-aminobenzoic acid ethyl ester, 0.17%; Sigma, St. Louis, Mo.) and cold-induced anesthesia from adult African clawed frogs, Xenopus laevis (Nasco, Ft. Atkinson, Wis.), and defolliculated by blunt dissection in Ca^2+ free ND-96 following 40 minutes incubation in 2 mg/ml collagenase (Type II; Sigma, St. Louis, Mo.). ND-96 consisted of 96 mM NaCl, 2 mM KCl, 1 mM MgCl2, 0.3 mM CaCl2, 5 mM HEPES, pH 7.6.The following day, a glass injection pipette manually broken to ~15 μm tip diameter was used to inject oocytes with […] of polyadenylated cRNA dissolved in water at 15, 30 or 100 ng/μl resulting in injection of 0.6, 1.2, or 4 ng of cRNA. Prior to recordings, oocytes were maintained 2-7 days at 20° C. in ND-96 supplemented with gentamycin ([…]; Bio-Whittaker, Walkersville, Md.) and sodium-pyruvate (2.5 mM; Sigma).
Electrophysiological recordings were conducted at room temperature. Oocyte resting membrane potential was measured in ND-96 using 30-80 M.OMEGA. glass microelectrodes filled with 3M KCl For two-microelectrode voltage-clamp recordings, the voltage-measuring pipette had resistances of 1.5 to 2.0 M.OMEGA., while the current-injection pipette had resistances of 0.7-0.9 M.OMEGA.; both pipettes were filled with 3M KCl. All voltage-clamp recordings were conducted in bath solutions containing 1 mM MgCl2, 0.3 mM CaCl2, and 5 mM HEPES. For experiments conducted in 50 mM K^+, the solution contained 50 mM KCl and 50 mM NaCl. For lower potassium concentrations, this solution was mixed with an identical solution in which choline was substituted for potassium. Pairs of solutions at pH 5.4 and 8.4, containing 50 mM KCl and either 50 mM potassium-acetate or 50 mM potassium-hydrogen phthalate (biphthalate; Sigma, St. Louis, Mo.) were mixed to vary pH.
Two-microelectrode, voltage-clamp recordings were conducted using the GeneClamp 500 (Axon Instruments, La Jolla, Calif.) interfaced with a 486 Computer running the PCLAMP 6.0 (Axon Instruments, La Jolla, Calif.) suite of programs. Currents were filtered at 2 kHz and sampled every 100 μs. Current amplitude was measured during the last 4 ms of a 400 ms test pulse. Data were analyzed and plotted using PCLAMP 6.0 and SIGMA PLOT 5.0 (Jandel Scientific, San Rafael, Calif.). Statistical significance was determined by the Student's T-test.

[2] = biological target: KIRK 1 (ROMK channel)

Compound	inhibition of KIRK 2 current [1]	effectiveness of block of KIRK 2 compared with Ba^2+ ([1]; apparent only at the most negative potentials tested, n=6, data not shown)	whole-cell current at a holding potential of -160 mV in Xenopus oocytes, two-microelectrode voltage clamp [2] [%]	fraction of the transmembrane electric field sensed by the binding site (Woodhull equation fit of Ki versus membrane potential) ([1]; Ki values at holding potentials -120, -80 and -40 mV) [%]	Hill coefficient of logistic fit of concentration-dependence of KIRK 2 inhibition ([1]; three holding potentials (-120, -80, -40 mV), n=8)
[Cs+] [Cs^+]	reversible and voltage-dependent	far less effective than block by Ba^2+	–	–	–
KIRK-3 (human kidney inward rectifier K channel 3)	–	–	54	–	–
[Ba+2] [Ba^2+]	reversible, concentrationdependent inhibition	–	–	46	2
